According to paper PMC6356859 (ACS Omega, 2019):
“Also recorded” adds a separate entry of the source. Like-named read-outs stand apart in the source and are kept apart here.

Legend:
EBOV [1] = experiment: microbe, parasite or virus in culture; type: cell-based, Ebola virus
EBOV [2] = conditions: cited from earlier work
EBOV [3] = conditions: cited from earlier work; remark: listed apart in the source
EBOV [4] = conditions: read-out: IC50 for the inhibition of virus entry in cells; cited from earlier work

Q: Which “EBOV activity (in words)” value (EBOV [1]) does the source give for NC(=O)c1nc(F)c[nH]c1=O [Favipiravir (T-705), Favipiravir] here?
A: inactive; also recorded: no activity at the concentrations tested

Q: And the EC50 (EBOV [2])?
A: 10 to 63 µg/mL

Q: What about the IC50 (EBOV [2]) of the same molecule?
A: 67 µM

Q: Which IC50 (EBOV [1]; Zaire ebolavirus, HeLa, read-out: IC50 (EBOV inhibitory activity)) does the source give for C[C@H]1[C@H](OC(=O)CCC(=O)O)O[C@@H]2O[C@@]3(C)CC[C@H]4[C@H](C)CC[C@@H]1[C@@]24OO3 [Artesunate] here?
A: 8.2 µM

Q: Which “EBOV activity (in words)” value (EBOV [1]) does the source give for CCCCN(CCCC)CC(O)c1cc(Cl)cc2c1-c1ccc(Cl)cc1/C2=C/c1ccc(Cl)cc1 (stereo not shown) [Lumefantrine] here?
A: inactive

Q: For CCN(CC)CCCC(C)Nc1ccnc2cc(Cl)ccc12 (stereo not shown) [chloroquine], which EC50 (EBOV [3]) is on record?
A: 4 µM

Q: Which “EBOV activity (in words)” value (EBOV [1]) does the source give for Nc1nc2c(ncn2COCCO)c(=O)[nH]1 [Acyclovir] here?
A: lacked an activity

Q: Which selectivity indexes (EBOV [1]) does the source give for C[C@H]1Cc2c([nH]c3cc(Cl)c(F)cc23)[C@@]2(N1)C(=O)Nc1ccc(Cl)cc12 [Cipargamin] here?
A: < 5

Q: Which IC50 (EBOV [4]) does the source give for CCN(CC)Cc1cc(Nc2ccnc3cc(Cl)ccc23)ccc1O [amodiaquine] here?
A: 2.6 µM

Q: Which “EBOV activity (in words)” value (EBOV [1]) does the source give for Clc1ccc2c(N3CCN(CCCN4CCN(c5ccnc6cc(Cl)ccc56)CC4)CC3)ccnc2c1 [Piperaquine Phosphate 4H20] here?
A: inactive
